Values quoted from earlier work, collected in US20120093928A1, “ORAL METAXALONE COMPOSITIONS” (RANBAXY LABORATORIES LIMITED, priority 2007, published 2012).

plasma half-life (in vivo): 2 to 3 h
time to mean peak plasma concentrations (oral, single 800 mg dosage): 2 h
SMILES: Cc1cc(C)cc(OCC2CNC(=O)O2)c1 (centres unmarked) [metaxalone, 5-[(3,5-dimethyphenoxy)methyl]-2-oxazolidinone]
